{"source": "patent US20250302080A1", "about": "“SWEETNESS AND/OR FLAVOR ENHANCER” (AJINOMOTO CO., INC., priority 2022, published 2025)", "key": {"[1]": {"experiment": "Sensory evaluation of sweetness intensity in orange drink (Experimental Examples 1-5)", "settings": "added alone, score (average) of 3.0 points or more", "protocol": "A negative control orange drink was prepared by diluting an orange drink (product name: Bireley's Orange, 20% wt % orange juice, Asahi Soft Drinks Co., Ltd.) 1.2 times with filtered water.\nWhen the carbohydrate content of Bireley's Orange is calculated as the total sucrose content, the negative control orange drink contains 9.17 g of sucrose per 100 g.\nA sensory evaluation of sweetness intensity was performed for each sample by a panel of four experts according to the following evaluation criteria.\n(§1) Sweetness intensity was evaluated by 0.0 to 10.0 point based on the following reference samples (negative control (hereinafter referred to as NC) (0.0 point); reference 1 (hereinafter referred to as R1) (5.0 points); reference 2 (hereinafter referred to as R2) (10.0 points)). The average score (rounded to two decimal places) of each expert panelist was calculated. An average score of 3.0 points or more was considered to be functional. • NC (0.0 point): orange drink (trade name: Bireley's Orange, Asahi Soft Drinks Co., Ltd.) diluted 1.2 times with filtered water (i.e., negative control orange drink). • R1 (5.0 points): with 0.46 g of sucrose added per 99.54 g of NC. • R2 (10.0 points): with 0.92 g of sucrose added per 99.08 g of NC.\nA sensory evaluation of sweetness intensity was performed for each sample by a panel of four experts according to the same evaluation criteria as in Experimental Example 1."}, "[2]": {"experiment": "Sensory evaluation of sweetness intensity in aspartame solution (Experimental Example 11)", "settings": "added alone, 3.0 points or more", "protocol": "A negative control aspartame solution (0.063 wt % aspartame solution) was prepared by dissolving aspartame in filtered water.\nA sensory evaluation of sweetness intensity was performed for each sample by a panel of three experts according to the following evaluation criteria.\nSweetness intensity was evaluated by 0.0 to 10.0 points based on the following reference samples (negative control (hereinafter referred to as NC) (0.0 point); reference 1 (hereinafter referred to as R1) (5.0 points); reference 2 (hereinafter referred to as R2) (10.0 points)). The average score (rounded to two decimal places) of each expert panelist was calculated. An average score of 3.0 points or more was considered to be functional. • NC (0.0 point): 0.063 wt % aspartame solution (solvent: filtered water) • R1 (5.0 points): 0.066 wt % aspartame solution (solvent: filtered water) • R2 (10.0 points): 0.069 wt % aspartame solution (solvent: filtered water)"}, "[3]": {"experiment": "Sensory evaluation of yogurt flavor intensity in yogurt drink (Experimental Example 14)", "settings": "added alone, 3.0 points or more", "protocol": "Yogurt drink (product name: 7 Premium Yogurt Drink, SEVEN-ELEVEN JAPAN CO., LTD.) was diluted 1.2 times with filtered water to prepare negative control yogurt drink.\nWhen the carbohydrate content of 7 Premium Yogurt Drink is calculated as the total sucrose content, the negative control yogurt drink contains 10.75 g of sucrose per 100 g.\nA sensory evaluation of sweetness intensity and yogurt flavor intensity was performed for each sample by a panel of three experts according to the following evaluation criteria.\nSweetness intensity and yogurt flavor intensity were each evaluated by 0.0 to 10.0 point based on the following reference samples (negative control (hereinafter referred to as NC) (0.0 point); reference 1 (hereinafter referred to as R1) (5.0 points); reference 2 (hereinafter referred to as R2) (10.0 points)). The average score (rounded to two decimal places) of each expert panelist was calculated. An average score of 3.0 points or more was considered to be functional. • NC (0.0 point): yogurt drink (product name: 7 Premium Yogurt Drink, SEVEN-ELEVEN JAPAN CO., LTD.) diluted 1.2 times with filtered water. • R1 (5.0 points): with 0.54 g of sucrose added per 99.46 g of NC. • R2 (10.0 points): with 1.08 g of sucrose added per 98.92 g of NC."}, "[4]": {"experiment": "Sensory evaluation of sweetness intensity in sucrose-containing cafe au lait (Experimental Examples 6-10)", "settings": "added alone, 3.0 points or more", "protocol": "The starting materials were mixed according to the blending rate in Table 6 to prepare a cafe au lait containing sucrose (hereinafter referred to as “negative control cafe au lait”).\nA sensory evaluation of the presence or absence of sweetness intensity enhancement was performed for each sample by a panel of four experts according to the following evaluation criteria.\nSweetness intensity was evaluated by 0.0 to 10.0 point based on the following reference samples (negative control (hereinafter referred to as NC) (0.0 point); reference 1 (hereinafter referred to as R1) (5.0 points); reference 2 (hereinafter referred to as R2) (10.0 points)). The average score (rounded to two decimal places) of each expert panelist was calculated. An average score of 3.0 points or more was considered to be functional. • NC (0.0 point): cafe au lait prepared by mixing starting materials at the blending rate in Table 6 (i.e., negative control cafe au lait). • R1 (5.0 points): drink with 0.15 g of sucrose added per 99.85 g of NC. • R2 (10.0 points): drink with 0.30 g of sucrose added per 99.70 g of NC.\nA sensory evaluation of sweetness intensity was performed for each sample by a panel of four experts according to the same evaluation criteria as in Experimental Example 6.\nA sensory evaluation of the presence or absence of sweetness intensity enhancement was performed for each sample by a panel of four experts according to the same evaluation criteria as in Experimental Example 6."}, "[5]": {"experiment": "Sensory evaluation of orange flavor intensity in orange drink (Experimental Example 13)", "settings": "added alone, 3.0 points or more", "protocol": "A negative control orange drink was prepared by the same method as in Experimental Example 1.\nA sensory evaluation of orange flavor intensity was performed for each sample by a panel of three experts according to the following evaluation criteria.\nas §1, with “Orange flavor” for “Sweetness”, “Orange)” for “Orange, Asahi Soft Drinks Co., Ltd.)”"}}, "data": [{"smiles": "CC1=C(O)C(=O)CC1", "note": "[cyclotene]", "values": [{"measurement": "concentration at which a sweetness-enhancing effect was confirmed", "setting": "[1]", "value": "≥ 0.1", "unit": "ppb"}, {"measurement": "concentration at which a sweetness-enhancing effect was confirmed", "setting": "[2]", "value": 10, "unit": "ppb"}, {"measurement": "concentration at which a yogurt flavor-enhancing effect was confirmed", "setting": "[3]", "value": "≥ 0.01", "unit": "ppb"}, {"measurement": "concentration at which a sweetness-enhancing effect was confirmed", "setting": "[4]", "value": "≥ 0.1", "unit": "ppb"}, {"measurement": "concentration at which an orange flavor-enhancing effect was confirmed", "setting": "[5]", "value": "≥ 10", "unit": "ppb"}]}, {"smiles": "CC(C)CCC(=O)O", "note": "[4-methylpentanoic acid]", "values": [{"measurement": "concentration at which a sweetness-enhancing effect was confirmed", "setting": "[1]", "value": "≥ 10", "unit": "ppb"}, {"measurement": "concentration at which a sweetness-enhancing effect was confirmed", "setting": "[2]", "value": 100, "unit": "ppb"}, {"measurement": "concentration at which a yogurt flavor-enhancing effect was confirmed", "setting": "[3]", "value": "≥ 0.1", "unit": "ppb"}, {"measurement": "concentration at which a sweetness-enhancing effect was confirmed", "setting": "[4]", "value": "≥ 0.1", "unit": "ppb"}, {"measurement": "concentration at which an orange flavor-enhancing effect was confirmed", "setting": "[5]", "value": "≥ 10", "unit": "ppb"}]}, {"smiles": "CCCCCCCCCC(=O)O", "note": "[decanoic acid]", "values": [{"measurement": "concentration at which a sweetness-enhancing effect was confirmed", "setting": "[1]", "value": "≥ 0.1", "unit": "ppb"}, {"measurement": "concentration at which a sweetness-enhancing effect was confirmed", "setting": "[2]", "value": 10, "unit": "ppb"}, {"measurement": "concentration at which a yogurt flavor-enhancing effect was confirmed", "setting": "[3]", "value": "≥ 0.01", "unit": "ppb"}, {"measurement": "concentration at which a sweetness-enhancing effect was confirmed", "setting": "[4]", "value": "≥ 1", "unit": "ppb"}, {"measurement": "concentration at which an orange flavor-enhancing effect was confirmed", "setting": "[5]", "value": "≥ 0.01", "unit": "ppb"}]}]}
